Experiment [1] concerns aVP-induced IP3 production in hVSMC. Description: IP3 production (ELISA) in hVSMC upon aVP stimulation. The format is cell-based, human. To be noted: TM peptides 10 µM, 30 min at 37°C, then aVP 1 µM, 5 min; n = 4; figure 8c. The protocol:
(§1) hVSMCs (primary aortic smooth muscle cells, ATCC PCS-100-012), A7r5 cells (ATCC-CRL-1444) and HEK293T cells (ATCC-CRL-11268) were purchased from American Type Culture Collection. hVSMCs were cultured in vascular basal media (ATCC PCS-100-030) supplemented with the vascular smooth muscle growth kit (ATCC PCS-100-042), containing 100 U ml^−1 penicillin and 100 µg ml^−1 streptomycin. hVSMCs were used between passages 2–5. HEK293T and A7r5 cells were cultured in high-glucose Dulbecco's Modified Eagle's Medium containing 10 mg ml^−1 sodium pyruvate, 2 mM L-glutamine, 10% (vol/vol) FBS, 1× non-essential amino acids, 100 U ml^−1 penicillin and 100 µg ml^−1 streptomycin. The HTLA cell line, a HEK293 cell line stably expressing a tTA-dependent luciferase reporter and a β-arrestin 2–TEV fusion gene were generously provided by the laboratory of Dr Bryan Roth and maintained in high-glucose Dulbecco's Modified Eagle's Medium supplemented with 10% (vol/vol) FBS, 1× non-essential amino acids, 100 U ml^−1 penicillin, 100 µg ml^−1 streptomycin, 50 µg ml^−1 hygromycin B and 2 µg ml^−1 puromycin. All cells were cultured in a humidified environment at 37°C, 5% CO2.
ACKR3 and CXCR4 siRNA gene silencing was performed as described previously. In brief, cells were grown in 2 ml Accell siRNA delivery media per well (Dharmacon) in six-well plates (Nunc). Commercially available Accell ACKR3 and CXCR4 siRNA were reconstituted with 1× siRNA buffer to a stock concentration of 100 µM. Cells were then transfected with 1 µM ACKR3/CXCR4 siRNA and incubated for 72 h at 37°C, 5% CO2. Accell NT-siRNA pool was used as a negative control. After 72 h, cells were assayed for receptor cell surface expression and used for signalling experiments.
IP3 enzyme-linked immunosorbent assays were purchased from LS Bio and performed as per the manufacturer's protocol (LS BIO F10644). In brief, hVSMCs were grown to confluency in six-well dishes (Nunc) and then treated as described in the Results section. Cells were then washed once with cold PBS, 225 µl of cold PBS was added to each well and cells were lysed by ultrasonication. The cell lysate was centrifuged for 10 min at 4°C at 1500g to remove cellular debris. The total protein concentration in the supernatant was determined with the Bio-Rad DC Protein Assay as per the manufacturer's protocol (Bio-Rad 500-0116). Equivalent amounts of total protein were added to the ELISA strips diluted in the provided sample diluent (1 : 5 and 1 : 10). The assay was then completed as per the manufacturer's protocol. Optical densities were read on a Biotek Synergy II microplate reader (absorbance at 450 nm), and IP3 concentrations were extrapolated from the standard curve.
(ELISA stands for enzyme-linked immunosorbent assay.)

The subject of experiment [2] is ACKR3. Description: β-arrestin 2 recruitment assay (PRESTO-Tango) for ACKR3 co-expressed with pcDNA3 or HA-AVPR1A. The format is cell-based, human. The conditions noted are these: cells co-expressing ACKR3-Tango and AVPR1A, TM peptides 10 µM, 30 min at 37°C, figure 9h; for effect of TM peptides on efficacy of aVP to induce β-arrestin 2 recruitment to ACKR3-Tango: then aVP, versus vehicle.
Excerpt: The human AVPR1A cDNA sequence was from the AVPR1A-TANGO plasmid (Addgene, plasmid #66225). The hRLuc cDNA was PCR-amplified from pIRES-Myc-hCXCR4-Rluc, which was generously provided by Dr Michel Bouvier, with primers carrying the AgeI and XbaI sites at either end, respectively, and ligated with the C-terminus of AVPR1A at the corresponding sites. Human CXCR4 and ACKR3 cDNAs were from the CXCR4-TANGO (Addgene, plasmid #66262) and the ACKR3-TANGO (Addgene, plasmid #66265) plasmids. The EYFP cDNA was PCR-amplified from pEYFP with primers harbouring AgeI and XbaI sites and ligated with the C-terminus of ACKR3. All plasmids were confirmed by sequencing.
as §1
The PRESTO-Tango (parallel receptorome expression and screening via transcriptional output, with transcriptional activation following arrestin translocation) assay was performed as recently described. The Tango plasmids were a gift from Dr Bryan Roth (all from Addgene). HTLA cells (2.5 × 10^5 per well) were seeded in a six-well plate and transfected with 1.5 µg of the Tango plasmids using Lipofectamine 3000 (ThermoScientific). The following day, transfected HTLA cells (1 × 10^5 cells per well) were plated onto poly-L-lysine precoated 96-well microplates and allowed to attach to the plate surface for at least 4 h prior to treatment. Proteins used for treatment were prepared in twice the final concentration in culture media, added at a 1 : 1 vol/vol ratio and incubated overnight at 37°C, 5% CO2 in a humidified environment. The following morning, media were removed from cell culture plates and replaced with a 100 µl 1 : 5 mixture of Bright-Glo (Promega) and 1× HBSS, 20 mM HEPES solution. Plates were then incubated at room temperature before measuring luminescence on a Biotek Synergy II plate reader.
A general note: Arrestin recruitment assays detect the binding of arrestin to an activated receptor.

In experiment [3] the test system is ACKR3. The conditions noted are these: ref [21]; cited from earlier work. The protocol: The effects of the TM peptide analogues of ACKR3 on aVP-induced recruitment of β-arrestin 2 to ACKR3-Tango in cells co-expressing ACKR3-Tango and AVPR1A are shown in figure 9h.
Another experiment has as its system ACKR3 : AVPR1A heteromer. In words: PLA signals for ACKR3 : AVPR1A interactions in hVSMC. The class given is cell-based, human. The conditions noted are these: 10 µM, 30 min at 37°C; figure 8b; *p < 0.05 versus vehicle. The protocol: as §1
(§2) PLAs were performed as described in detail previously. In brief, cells were grown and fixed on eight-well chamber slides (Nunc). […]

For another experiment, the system named is CXCR4 : AVPR1A heteromer. Description: PLA signals for CXCR4 : AVPR1A interactions in hVSMC. The format is cell-based, human. The conditions noted are these: 10 µM, 30 min at 37°C; figure 8b. On the procedure: as §1, §2

The text below walks through data of article PMC5795052 (Open Biology, 2018).

Turning to “DDDLHVTQCLSLVHCCVNPVLYSFIN [TM7, peptide analogue of transmembrane helix 7 (TM7) of ACKR3, described previously [21]]”, the “effect of TM peptides on aVP-induced IP3 production” value in experiment [1] is reported as “ineffective”. Besides, the “effect of TM peptides on efficacy of aVP to induce β-arrestin 2 recruitment to ACKR3-Tango” value (shortened to “effect of TM peptides on efficacy of aVP”) with ACKR3 [2] is on record as “did not show significant effects”. Further, the “behaviour in β-arrestin 2 recruitment to ACKR3-Tango upon agonist stimulation” value (from here on “behaviour in β-arrestin 2 recruitment”) with ACKR3 [3] is “inactive”.
As for “VVCILWLLAFCVSLPDTYYLDD [TM4, peptide analogue of transmembrane helix 4 (TM4) of ACKR3, described previously [21]]”, the “effect of TM peptides on aVP-induced IP3 production” value in experiment [1] was “inhibited aVP-induced IP3 production”. In addition, the “effect of TM peptides on PLA signals for AVPR1A : ACKR3 interactions” value with ACKR3 : AVPR1A heteromer is given as “reduced PLA signals for AVPR1A : ACKR3 interactions”. The “effect of TM peptides on PLA signals for AVPR1A : CXCR4 interactions” value with CXCR4 : AVPR1A heteromer is recorded as “did not increase AVPR1A : CXCR4 interactions”. In the experiment with ACKR3 [2], the “effect of TM peptides on efficacy of aVP” value was “significantly reduced the efficacy of aVP to induce β-arrestin 2 recruitment”, the “inhibition of aVP-induced β-arrestin 2 recruitment to ACKR3-Tango (comparison TM2/TM4)” value is on record as “inhibited aVP-induced β-arrestin 2 recruitment to ACKR3-Tango with comparable efficacy” and the “mode of antagonism of aVP-induced β-arrestin 2 recruitment to ACKR3-Tango” value is “non-competitive antagonists”. Besides, the “behaviour in β-arrestin 2 recruitment” value in the experiment with ACKR3 [3] is recorded as “behaviour similar to the TM2 peptide, but this effect did not reach statistical significance”.
“YILNLAIADLWVVLTIPVWVVDDD [TM2, peptide analogue of transmembrane helix 2 (TM2) of ACKR3, described previously [21]]”: the “effect of TM peptides on aVP-induced IP3 production” value in experiment [1] was “inhibited aVP-induced IP3 production”. In the experiment with ACKR3 : AVPR1A heteromer, the “effect of TM peptides on PLA signals for AVPR1A : ACKR3 interactions” value is “reduced PLA signals for AVPR1A : ACKR3 interactions”. Also, the “effect of TM peptides on PLA signals for AVPR1A : CXCR4 interactions” value in the experiment with CXCR4 : AVPR1A heteromer was “did not increase AVPR1A : CXCR4 interactions”. For the same sequence, in the experiment on ACKR3 [2], the “effect of TM peptides on efficacy of aVP” value is “significantly reduced the efficacy of aVP to induce β-arrestin 2 recruitment”, the “inhibition of aVP-induced β-arrestin 2 recruitment to ACKR3-Tango (comparison TM2/TM4)” value is “inhibited aVP-induced β-arrestin 2 recruitment to ACKR3-Tango with comparable efficacy” and the “mode of antagonism of aVP-induced β-arrestin 2 recruitment to ACKR3-Tango” value is reported as “non-competitive antagonists”. For the same sequence, the “behaviour in β-arrestin 2 recruitment” value with ACKR3 [3] is “competitive antagonist”.
